# Measurements as given in the supplement of paper PMC10331698.
# ± gives the standard deviation of the averaged measurements.
# Assays:
# Test in all cases: level (log10 ratio to DMSO vehicle control); higher = higher biomarker level / cell amount than vehicle control
# Conditions in all cases: in DMSO
# Perfluorooctanamide = compound: NC(=O)C(F)(F)C(F)(F)C(F)(F)C(F)(F)C(F)(F)C(F)(F)C(F)(F)F [Perfluorooctanamide]
# Procedure: (§1)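 BioMAP Diversity Plus panel of 12 human primary cell co-culture systems (3C, 4H, LPS, SAg, BT, BF4T, BE3C, CASM3C, HDF3CGF, KF3CT, MyoF, Mphg). Compounds were added 1 h before stimulation and left for 24 h (MyoF 48 h; BT 72 h for soluble read-outs or 6 d for IgG). Biomarkers were read by ELISA, cytotoxicity by SRB, PBMC viability and proliferation by Alamar Blue. Each well value was divided by the mean of 8 DMSO control wells on the same plate and log10 transformed; duplicate blinded samples were tested at 4 concentrations.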
# Hexafluoroglutaric acid = compound: O=C(O)C(F)(F)C(F)(F)C(F)(F)C(=O)O [Hexafluoroglutaric acid]
# Procedure: as §1
# 1H,1H-Heptafluorobutanol = compound: OCC(F)(F)C(F)(F)C(F)(F)F [1H,1H-Heptafluorobutanol]
# Procedure: as §1
# [1] = compound: O=S(=O)(O)C(F)(F)C(F)(F)C(F)(F)C(F)(F)C(F)(F)C(F)(F)C(F)(F)C(F)(F)F [Potassium perfluorooctanesulfonate]
# Procedure: as §1
Test System,level (log10) (Perfluorooctanamide; 6700 nM),level (log10) (Perfluorooctanamide; 20000 nM),level (log10) (Perfluorooctanamide; 60000 nM),level (log10) (Hexafluoroglutaric acid; 6700 nM),level (log10) (Hexafluoroglutaric acid; 20000 nM),level (log10) (Hexafluoroglutaric acid; 60000 nM),"level (log10) (1H,1H-Heptafluorobutanol; 6700 nM)","level (log10) (1H,1H-Heptafluorobutanol; 20000 nM)","level (log10) (1H,1H-Heptafluorobutanol; 60000 nM)",level (log10) ([1]; 6700 nM),level (log10) ([1]; 20000 nM),level (log10) ([1]; 60000 nM)
3C:CD87/uPAR,0.0075 ± 0.011,0.004 ± 0.0099,0.0045 ± 0.0092,-0.0075 ± 0.018,-0.0105 ± 0.028,0.0025 ± 0.013,-0.011 ± 0.025,0.0085 ± 0.023,0.026 ± 0.021,-0.0065 ± 0.076,0.002 ± 0.017,0.015 ± 0.048
3C:CXCL8/IL-8,-0.013 ± 0.0042,0.002 ± 0.031,0.047 ± 0.021,-0.033 ± 0.0057,-0.0185 ± 0.018,0.0015 ± 0.044,0.0005 ± 0.067,-0.0055 ± 0.079,0.0185 ± 0.093,0.0295 ± 0.044,0.027 ± 0.02,0.0555 ± 0.0064
3C:CXCL9/MIG,0.01 ± 0.0042,0.008 ± 0.014,0.031 ± 0.0014,-0.014 ± 0.0085,-0.005 ± 0.0042,-0.0075 ± 0.0035,0.001 ± 0.021,0.002 ± 0.014,0 ± 0.017,0.0085 ± 0.0092,-0.003 ± 0.0042,0.013 ± 0.013
3C:HLA-DR,0.001 ± 0.034,0.002 ± 0.017,0.0095 ± 0.019,0.0225 ± 0.035,0.0315 ± 0.047,0.038 ± 0.042,-0.0025 ± 0.0021,0.0035 ± 0.012,0.005 ± 0.014,0.0075 ± 0.0092,0.0075 ± 0.0021,0.0215 ± 0.0064
3C:Proliferation,0.0165 ± 0.0021,0 ± 0.014,-0.081 ± 0.0085,-0.0055 ± 0.0064,-0.009 ± 0.068,-0.0155 ± 0.054,0.0075 ± 0.005,0.02 ± 0.025,-0.0595 ± 0.005,-0.042 ± 0.035,-0.0165 ± 0.061,-0.0445 ± 0.0092
3C:SRB,0.007 ± 0.013,0.0095 ± 0.005,-0.015 ± 0.0099,-0.004 ± 0.0014,-0.005 ± 0.014,0.0075 ± 0.028,-0.0095 ± 0.012,0.001 ± 0.0085,-0.001 ± 0.0071,0.0105 ± 0.025,-0.0195 ± 0.033,-0.045 ± 0.042
4H:CCL2/MCP-1,-0.016 ± 0.0028,-0.005 ± 0.0014,-0.008,-0.0095 ± 0.032,-0.0135 ± 0.011,0.0245 ± 0.047,0.0015 ± 0.0035,-0.0025 ± 0.00071,0.0125 ± 0.026,0.0095 ± 0.023,-0.0305 ± 0.0064,-0.0215 ± 0.025
4H:CCL26/Eotaxin-3,0.033 ± 0.055,0.021 ± 0.031,0.0275 ± 0.04,0.0155 ± 0.035,0.0155 ± 0.013,0.0235 ± 0.0078,0.017 ± 0.03,0.01 ± 0.014,0.0255 ± 0.021,0.0085 ± 0.015,-0.0495 ± 0.021,-0.0665 ± 0.037
4H:CD62P/P-selectin,-0.0005 ± 0.0078,-0.0225 ± 0.022,-0.02 ± 0.024,0.0065 ± 0.0035,-0.035 ± 0.0014,-0.05 ± 0.064,0.0195 ± 0.064,-0.007 ± 0.14,0.044 ± 0.15,0.0375 ± 0.015,0.085 ± 0.0042,0.086 ± 0.027
4H:CD87/uPAR,-0.0055 ± 0.037,0.0105 ± 0.021,-0.0285 ± 0.012,-0.046 ± 0.023,-0.027 ± 0.057,-0.005 ± 0.031,-0.0055 ± 0.035,0.004 ± 0.071,0.032 ± 0.09,0.0655 ± 0.044,0.037 ± 0.033,0.082 ± 0.058
4H:CD106/VCAM-1,-0.023,-0.0235 ± 0.0035,-0.01 ± 0.03,-0.005 ± 0.014,-0.005 ± 0.03,-0.0045 ± 0.012,0 ± 0.03,0.0325 ± 0.023,0.027 ± 0.048,0.0085 ± 0.028,-0.004 ± 0.016,-0.0095 ± 0.023
4H:SRB,-0.0005 ± 0.005,-0.008 ± 0.0057,0.0085 ± 0.028,-0.0005 ± 0.0092,0.003 ± 0.016,0.011 ± 0.034,-0.005 ± 0.0071,-0.0005 ± 0.013,0.0065 ± 0.005,-0.0105 ± 0.011,0.004 ± 0.024,-0.0095 ± 0.023
4H:VEGFR2,-0.025 ± 0.0099,-0.0405 ± 0.037,-0.021 ± 0.025,0.0005 ± 0.016,-0.04 ± 0.0099,-0.0095 ± 0.0078,0.0085 ± 0.026,-0.0015 ± 0.0035,0.003 ± 0.035,0.0245 ± 0.0021,0.01 ± 0.024,0.027 ± 0.0099
BE3C:CD54/ICAM-1,-0.012 ± 0.0042,-0.0075 ± 0.012,-0.022 ± 0.033,0.018 ± 0.0042,0.0095 ± 0.018,0.009 ± 0.02,-0.0035 ± 0.0092,-0.0105 ± 0.00071,0.0085 ± 0.011,0.027 ± 0.0028,0.074 ± 0.024,0.0575 ± 0.0064
BE3C:CD87/uPAR,-0.0475 ± 0.0035,-0.0065 ± 0.035,-0.004 ± 0.028,-0.0045 ± 0.0092,-0.01 ± 0.014,-0.0125 ± 0.011,-0.0115 ± 0.0092,0.032 ± 0.018,0.0015 ± 0.021,0.0335 ± 0.022,0.081 ± 0.054,0.14 ± 0.025
BE3C:CXCL8/IL-8,0.011 ± 0.0028,0.011 ± 0.0071,-0.0045 ± 0.005,-0.011 ± 0.014,-0.0165 ± 0.0064,-0.011 ± 0.02,0.0275 ± 0.063,0 ± 0.04,0.003 ± 0.033,-0.053 ± 0.065,-0.112 ± 0.035,-0.082 ± 0.024
BE3C:CXCL9/MIG,0.0075 ± 0.028,0.0025 ± 0.019,0.012 ± 0.011,0.001 ± 0.0042,0.008,-0.0055 ± 0.0021,-0.001,0.0025 ± 0.0035,0.007 ± 0.0028,0.0095 ± 0.0064,-0.014 ± 0.024,-0.039 ± 0.021
BE3C:CXCL10/IP-10,-0.0025 ± 0.028,-0.005 ± 0.0071,-0.0135 ± 0.015,-0.001 ± 0.0042,-0.0085 ± 0.00071,0.0015 ± 0.023,0.0345 ± 0.023,0.0195 ± 0.035,0.0265 ± 0.032,-0.0455 ± 0.0035,-0.505 ± 0.0057,-0.589 ± 0.014
BE3C:CXCL11/I-TAC,0.0015 ± 0.013,0.004 ± 0.0042,0 ± 0.0014,0.0045 ± 0.028,-0.002 ± 0.024,0.0045 ± 0.013,0.0065 ± 0.0035,0.0145 ± 0.023,0.0085 ± 0.023,-0.002 ± 0.0042,-0.113 ± 0.012,-0.203 ± 0.024
BE3C:EGFR,0.012 ± 0.011,-0.002 ± 0.0085,0.035 ± 0.016,-0.0055 ± 0.0035,-0.0175 ± 0.005,0.0025 ± 0.012,0.009 ± 0.014,0.0135 ± 0.022,0.016 ± 0.027,-0.012 ± 0.021,-0.173 ± 0.043,-0.182 ± 0.071
BE3C:HLA-DR,0.001 ± 0.017,-0.0035 ± 0.0078,0.0025 ± 0.0092,-0.006,-0.017 ± 0.0014,-0.021 ± 0.028,-0.0035 ± 0.0021,0.0105 ± 0.00071,0.02 ± 0.03,-0.012 ± 0.018,-0.194 ± 0.023,-0.191 ± 0.042
BE3C:IL-1alpha,-0.015 ± 0.011,-0.003 ± 0.0042,0.0045 ± 0.0064,-0.014 ± 0.027,-0.0295 ± 0.005,-0.0045 ± 0.016,0.003 ± 0.011,-0.0095 ± 0.022,-0.0035 ± 0.018,0.022 ± 0.0042,0.02 ± 0.0071,-0.0105 ± 0.03
BF4T:CCL2/MCP-1,0.011 ± 0.0042,-0.0015 ± 0.0035,-0.009 ± 0.037,0.0015 ± 0.043,-0.0225 ± 0.005,0.0085 ± 0.032,-0.002 ± 0.018,0.003 ± 0.057,-0.0135 ± 0.0021,0.005 ± 0.072,0.0255 ± 0.022,0.07 ± 0.016
BF4T:CCL26/Eotaxin-3,0.016 ± 0.017,-0.0015 ± 0.057,-0.0475 ± 0.0064,0.016 ± 0.054,0.0055 ± 0.042,0.043 ± 0.011,0.0275 ± 0.04,0.0405 ± 0.022,0.0315 ± 0.013,-0.0775 ± 0.074,-0.146 ± 0.056,-0.126 ± 0.0064
BF4T:CD54/ICAM-1,-0.0175 ± 0.0064,-0.006 ± 0.014,-0.015 ± 0.0028,0.0025 ± 0.005,-0.01 ± 0.0057,0.006 ± 0.011,0.0035 ± 0.0021,0.008 ± 0.0085,0.001 ± 0.013,0.0055 ± 0.032,0.0025 ± 0.012,0.0215 ± 0.035
